In patent US9980943B2, “Methods of treating muscular dystrophy” (BOARD OF REGENTS OF THE NEVADA SYSTEM OF HIGHER EDUCATION, …, priority 2013, dated 2018):

Legend:
Assay type in all cases: cell-based, mouse
[1] = test system: β-galactosidase in CMV-LacZ C2C12 myotubes; experiment: CMV-LacZ secondary screen in C2C12 myotubes (β-Gal stabilizing assay); settings: C2C12 CMV-LacZ myotubes, fold relative to DMSO
Outline: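 A secondary screen identifies compounds that stabilize β-gal independently of the native promoter, using CMV-LacZ C2C12 cells. Curves span 0.5–40 μM at six levels, in duplicate.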

[2] = test system: β-galactosidase in CMV-LacZ C2C12 myoblasts; experiment: CMV-LacZ secondary screen in C2C12 myoblasts (β-Gal stabilizing assay); settings: CMV-LacZ C2C12 myoblasts
Outline: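 β-gal stabilization was measured in C2C12 myoblasts or myotubes stably transfected with a CMV-driven LacZ construct, using the FDG β-gal assay. Compounds were tested in dose-response at 0.5, 1, 5, 10, 20 and 40 μM, with two replicates per point.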

[3] = test system: α7 integrin (LacZ reporter in α7+/LacZ myotubes); experiment: Myotube α7 integrin FDG assay (Burkin assay in myotubes, 96-well); settings: myotubes
[4] = test system: α7 integrin (LacZ reporter in α7βgal+/− myoblasts); experiment: Myoblast α7+/LacZ integrin FDG assay (Burkin assay in myoblasts, 96-well); settings: α7+/LacZ myoblasts, 96-well

| Compound | CMV-LACZ in Myotubes, signal relative to DMSO ([1]; 0.5 uM) | CMV-LACZ in Myotubes, signal relative to DMSO ([1]; 1 uM) | CMV-LACZ in Myotubes, signal relative to DMSO ([1]; 5 uM) | CMV-LACZ in Myotubes, signal relative to DMSO ([1]; 10 uM) | CMV-LACZ in Myotubes, signal relative to DMSO ([1]; 20 uM) | CMV-LACZ in Myotubes, signal relative to DMSO ([1]; 40 uM) | CMV-LACZ in Myoblasts (β-galactosidase activity relative to DMSO) ([2]; 0.5 uM) | CMV-LACZ in Myoblasts (β-galactosidase activity relative to DMSO) ([2]; 1 uM) | CMV-LACZ in Myoblasts (β-galactosidase activity relative to DMSO) ([2]; 5 uM) | CMV-LACZ in Myoblasts (β-galactosidase activity relative to DMSO) ([2]; 10 uM) | CMV-LACZ in Myoblasts (β-galactosidase activity relative to DMSO) ([2]; 20 uM) | CMV-LACZ in Myoblasts (β-galactosidase activity relative to DMSO) ([2]; 40 uM) | Burkin Assay in Myotubes, α7 integrin LacZ reporter signal relative to DMSO ([3]; 0.5 uM) | Burkin Assay in Myotubes, α7 integrin LacZ reporter signal relative to DMSO ([3]; 1 uM) | Burkin Assay in Myotubes, α7 integrin LacZ reporter signal relative to DMSO ([3]; 5 uM) | Burkin Assay in Myotubes, α7 integrin LacZ reporter signal relative to DMSO ([3]; 10 uM) | Burkin Assay in Myotubes, α7 integrin LacZ reporter signal relative to DMSO ([3]; 20 uM) | Burkin Assay in Myotubes, α7 integrin LacZ reporter signal relative to DMSO ([3]; 40 uM) | Burkin Assay in Myoblasts, signal relative to DMSO ([4]; 0.5 uM) | Burkin Assay in Myoblasts, signal relative to DMSO ([4]; 1 uM) | other results |
| --- | --- | --- | --- | --- | --- | --- | --- | --- | --- | --- | --- | --- | --- | --- | --- | --- | --- | --- | --- | --- | --- |
| O=C(NCc1ccccc1)c1csc(-c2cccnc2)n1 [MLS000860966-01] | 0.8229 | 1.0743 | 0.9632 | 0.8601 | 0.9190 | 0.7920 | 0.9370 | 1.0900 | 0.7918 | 0.8424 | 0.6232 | 0.7600 | 0.9275 | 0.8211 | 1.1137 | 1.107 | 1.06 | 0.8927 | 0.8092 | 0.9506 | Burkin Assay in Myoblasts, signal relative to DMSO ([4]; 5 uM): 1.225; Burkin Assay in Myoblasts, signal relative to DMSO ([4]; 10 uM): 1.126; Burkin Assay in Myoblasts, signal relative to DMSO ([4]; 20 uM): 1.242; Burkin Assay in Myoblasts, signal relative to DMSO ([4]; 40 uM): 1.117 |
| C/C(=N\NC(=O)c1cc(C)oc1C)c1ccc2ccccc2c1 [MLS000912258-01] | 0.9743 | 0.9162 | 1.1251 | 1.2253 | 1.0760 | 1.0350 | 1.1073 | 1.1693 | 0.9071 | 1.0171 | 1.1074 | 0.8621 | 0.9264 | 0.8571 | 1.144 | 0.9631 | 0.877 | 0.7193 | 0.8436 | 0.9089 | Burkin Assay in Myoblasts, signal relative to DMSO ([4]; 5 uM): 1.2722; Burkin Assay in Myoblasts, signal relative to DMSO ([4]; 10 uM): 0.8425; Burkin Assay in Myoblasts, signal relative to DMSO ([4]; 20 uM): 0.6351; Burkin Assay in Myoblasts, signal relative to DMSO ([4]; 40 uM): 0.3725 |
| CC(=O)Nc1ccc(NC(=O)C/C(C)=N/NC(=O)COc2cc(C)c(Br)cc2Br)cc1 [MLS000912562-01] | 1.0905 | 0.8924 | 0.9602 | 1.1674 | 1.2090 | 1.2780 | 0.8680 | 0.9150 | 0.7103 | 0.6246 | 1.0302 | 0.8747 | 0.898 | 0.8582 | 0.929 | 0.8748 | 0.8872 | 0.7024 | 0.7697 | 0.929 | Burkin Assay in Myoblasts, signal relative to DMSO ([4]; 5 uM): 1.039; Burkin Assay in Myoblasts, signal relative to DMSO ([4]; 10 uM): 0.9253; Burkin Assay in Myoblasts, signal relative to DMSO ([4]; 20 uM): 0.6911; Burkin Assay in Myoblasts, signal relative to DMSO ([4]; 40 uM): 0.5552 |
| COc1ccc(CCNC(=O)Cn2nnc(C(=O)Nc3ccc(Br)cc3)c2N)cc1OC [MLS000912699-01] | 0.8089 | 0.9859 | 0.9419 | 1.1310 | 0.9235 | 0.5365 | 0.7147 | 0.8744 | 0.9111 | 1.0462 | 0.8826 | 0.5204 | 1.175 | 0.9376 | 0.9252 | 0.939 | 0.5217 | 0.6518 | 1.115 | 1.038 | Burkin Assay in Myoblasts, signal relative to DMSO ([4]; 5 uM): 0.9322; Burkin Assay in Myoblasts, signal relative to DMSO ([4]; 10 uM): 0.9298; Burkin Assay in Myoblasts, signal relative to DMSO ([4]; 20 uM): 0.6724; Burkin Assay in Myoblasts, signal relative to DMSO ([4]; 40 uM): 0.4392 |
| CCOc1ccccc1NC(=O)c1cccc2c1C(=O)N(C1CCCCC1)C2 [MLS000912726-01] | 0.8527 | 0.9264 | 0.9111 | 1.1041 | 1.2060 | 1.0150 | 1.1004 | 0.9692 | 1.0182 | 1.0325 | 1.0257 | 1.0643 | 1.066 | 0.8889 | 0.8818 | 0.886 | 0.8231 | 0.8237 | 1.279 | 1.177 | Burkin Assay in Myoblasts, signal relative to DMSO ([4]; 5 uM): 0.9838; Burkin Assay in Myoblasts, signal relative to DMSO ([4]; 10 uM): 1.02; Burkin Assay in Myoblasts, signal relative to DMSO ([4]; 20 uM): 1.1258; Burkin Assay in Myoblasts, signal relative to DMSO ([4]; 40 uM): 1.022 |
| COc1ccc(CNC(=O)C2CCCN(S(=O)(=O)c3c(C)noc3/C=C/N(C)C)C2)cc1 (stereo not drawn) [MLS000925023-01] | 0.7505 | 1.1333 | 1.1638 | 0.8859 | 1.1565 | 1.1106 | 1.0703 | 0.9629 | 0.9762 | 0.8397 | 0.5504 | 0.3278 | 1.16 | 1.24 | 0.8969 | 0.8784 | 0.8004 | 0.7318 | 0.996 | 1.035 | Burkin Assay in Myoblasts, signal relative to DMSO ([4]; 5 uM): 0.9523; Burkin Assay in Myoblasts, signal relative to DMSO ([4]; 10 uM): 0.7957; Burkin Assay in Myoblasts, signal relative to DMSO ([4]; 20 uM): 0.7765; Burkin Assay in Myoblasts, signal relative to DMSO ([4]; 40 uM): 0.4179 |
